Laboratory results taken from patent US6420532B1, “Method of obtaining compositions comprising Y2 specific compounds” (Synaptic Pharmaceutical Corporation, priority 1994, dated 2002).

Key:
PYY-preferring receptor = conditions: rat small intestine; cited from earlier work
human Y2 receptor [1] = target: T1, human Y2 receptor (Homo sapiens, UniProt P49146); conditions: stably transfected NIH-3T3 cells
T1 sequence (P49146 1-381): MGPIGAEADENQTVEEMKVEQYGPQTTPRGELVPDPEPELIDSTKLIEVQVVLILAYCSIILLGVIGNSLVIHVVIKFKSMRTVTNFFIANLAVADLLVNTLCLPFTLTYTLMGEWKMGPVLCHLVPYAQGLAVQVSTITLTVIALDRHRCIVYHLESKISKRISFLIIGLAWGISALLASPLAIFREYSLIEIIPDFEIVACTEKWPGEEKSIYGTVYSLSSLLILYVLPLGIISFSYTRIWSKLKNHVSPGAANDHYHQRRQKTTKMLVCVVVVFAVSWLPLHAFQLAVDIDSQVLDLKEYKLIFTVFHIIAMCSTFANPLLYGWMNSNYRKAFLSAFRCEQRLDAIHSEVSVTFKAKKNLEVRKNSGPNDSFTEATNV

human Y2 receptor [2] = target: T1, human Y2 receptor; assay: Inhibition of forskolin-stimulated cAMP accumulation (radioimmunoassay), stably transfected 293 cells; type: cell-based; design: expressed in transfected cells; conditions: maximum inhibition of cAMP accumulation relative to that produced by human NPY

Substance | higher affinity for PYY than for NPY (PYY-preferring receptor) | decrease of forskolin-stimulated cAMP accumulation (human Y2 receptor [1]) [%] | Function Emax (human Y2 receptor [2]) [%]
PYY: PYY, species not stated (Table 2, b7) [peptide YY] | 5-10 fold | – | –
Neuropeptide Y [NPY, human] | – | 50 | 100
